Laboratory results taken from patent US20170283834A1, “Processes for Producing A Fermentation Product Using A Fermenting Organism” (Novozymes A/S, priority 2014, published 2017).
Numbering of substitutions follows the chain as printed. Names and notes keep the numbering of the source.

Tests used:
[1] = tested on: Ethanol Red™; assay: Addition of acetate to ethanol fermentations (SSF of corn mash); conditions: for % change over no added acetate: glycerol
Procedure: The yeast strain tested in this experiment was Ethanol […] ). […] After a total of 30 minutes, the flasks were removed from the water bath. Total yeast concentration was determined using the YC-100 in duplicate. LactrolTM (PhibroChem) was added to each mash to a final concentration of 24 ppm. […] Approximately 5 grams of each of the resulting mashes was transferred to test tubes having a 1/64 hole drilled in the top to allow CO2 release. […] Yeast was dosed at 5×10e6 cells/g mash. Milli-Q water was added to each tube so that a total volume of liquid added (enzyme+MQ water+acid) to each tube would be equally proportionate to the mash weight. Fermentations took place in a 32° C. water bath for 54 hours. Samples were vortexed periodically (in the morning and in the evening) throughout the fermentation. […] Fermentation sampling took place after 48 and 54 hours of fermentation by sacrificing 3 tubes per treatment. […] All samples were processed without further dilution. Samples were stored at 4° C. prior to and during HPLC analysis. Samples were analyzed for sugars (DP4+, DP3, DP2, glucose, and fructose), organic acids (lactic and acetic), glycerol, and ethanol.

[2] = tested on: zein; assay: Relative activity assay of protease variants (zein micro titer plate); format: biochemical
Outline: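 Yeast culture supernatants (3 days, 28 °C) incubated over 4 h or overnight on zein-agar plates (pH 4.5 acetate, 0.25 mM ZnSO4) at two temperatures. Zein turbidity read at A630; higher/lower-temperature activity ratio gives relative thermoactivity.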

[3] = tested on: zein; assay: Zein-BCA assay, temperature profile of purified protease variants; format: biochemical
Procedure: Selected variants showing good thermo-stability were purified and the purified enzymes were used in a zein-BCA assay as described below. The remaining protease activity was determined at 60° C. after incubation of the enzyme at elevated temperatures as indicated for 60 min.
Zein-BCA assay was performed to detect soluble protein quantification released from zein by variant proteases at various temperatures.
• 1) Mix 10 ul of 10 ug/ml enzyme solutions and 100 ul of 0.025% zein solution in a micro titer plate (MTP). • 2) Incubate at various temperatures for 60 min. • 3) Add 10 ul of 100% trichloroacetic acid (TCA) solution. • 4) Centrifuge MTP at 3500 rpm for 5 min. • 5) Take out 15 ul to a new MTP containing 100 ul of BCA assay solution (Pierce Cat#:23225, BCA Protein Assay Kit). • 6) Incubate for 30 min. at 60° C. • 7) Measure A562.

[4] = tested on: azo-casein; assay: Remaining activity assay of protease variants (azo-casein); format: biochemical; conditions: 10 min at 84° C., pH 4.5, 4° C. as reference
Procedure: Yeast clones on SC-glucose were inoculated to a well of a 96-well micro titre plate and cultivated at 28° C. for 3 days. Protease activity was measured at 65° C. using azo-casein (Megazyme) after incubating the culture supernatant in 20 mM sodium acetate buffer, pH 4.5, for 10 min at a certain temperature (80° C. or 84° C. with 4° C. as a reference) to determine the remaining activity. The clones with higher remaining activity than the parental variant were selected and the sequence was determined.
20 microL of samples were mixed with 150 microL of substrate solution (4 ml of 12.5% azo-casein in ethanol in 96 ml of 20 mM sodium acetate, pH 4.5, containing 0.01% triton-100 and 0.25 mM ZnSO4) and incubated for 4 hours or longer.
After adding 20 microL/well of 100% trichloroacetic acid (TCA) solution, the plate was centrifuge and 100 microL of supernatants were pipette out to measure A440.

[5] = Sample incubated 60 min at 60° C.
[6] = Sample incubated 60 min at 70° C.
[7] = Sample incubated 60 min at 75° C.
[8] = Sample incubated 60 min at 80° C.
[9] = Sample incubated 60 min at 85° C.
[10] = Sample incubated 60 min at 90° C.

Molecule: CC(=O)O [Acetate, acetic acid]
- Glycerol levels with added acetate [1]: reduced
- 48 Hour ETOH (w/v %) ([1]; Added Acetate 5 mM, 48 hours): 13.55 w/v %
- 48 Hour Glycerol (w/v %) ([1]; Added Acetate 5 mM, 48 hours): 1.636 w/v %
- % Boost over no added acetate ([1]; Added Acetate 5 mM, 48 hours): 0.28%
- 54 Hour ETOH (w/v %) ([1]; Added Acetate 5 mM, 54 hours): 13.71 w/v %
- 54 Hour Glycerol (w/v %) ([1]; Added Acetate 5 mM, 54 hours): 1.625 w/v %
- % Boost over no added acetate ([1]; Added Acetate 5 mM, 54 hours): 0.97%
- 48 Hour ETOH (w/v %) ([1]; Added Acetate 10 mM, 48 hours): 13.66 w/v %
- 48 Hour Glycerol (w/v %) ([1]; Added Acetate 10 mM, 48 hours): 1.553 w/v %
- % Boost over no added acetate ([1]; Added Acetate 10 mM, 48 hours): 1.07%
- 54 Hour ETOH (w/v %) ([1]; Added Acetate 10 mM, 54 hours): 13.73 w/v %
- 54 Hour Glycerol (w/v %) ([1]; Added Acetate 10 mM, 54 hours): 1.569 w/v %
- % Boost over no added acetate ([1]; Added Acetate 10 mM, 54 hours): 1.10%
- 48 Hour ETOH (w/v %) ([1]; Added Acetate 20 mM, 48 hours): 13.77 w/v %
- 48 Hour Glycerol (w/v %) ([1]; Added Acetate 20 mM, 48 hours): 1.462 w/v %
- % Boost over no added acetate ([1]; Added Acetate 20 mM, 48 hours): 1.88%
- 54 Hour ETOH (w/v %) ([1]; Added Acetate 20 mM, 54 hours): 13.83 w/v %
- 54 Hour Glycerol (w/v %) ([1]; Added Acetate 20 mM, 54 hours): 1.45 w/v %
- % Boost over no added acetate ([1]; Added Acetate 20 mM, 54 hours): 1.90%
- 48 Hour ETOH (w/v %) ([1]; Added Acetate 40 mM, 48 hours): 13.82 w/v %
- 48 Hour Glycerol (w/v %) ([1]; Added Acetate 40 mM, 48 hours): 1.365 w/v %
- % Boost over no added acetate ([1]; Added Acetate 40 mM, 48 hours): 2.29%
- 54 Hour ETOH (w/v %) ([1]; Added Acetate 40 mM, 54 hours): 13.83 w/v %
- 54 Hour Glycerol (w/v %) ([1]; Added Acetate 40 mM, 54 hours): 1.365 w/v %
- % Boost over no added acetate ([1]; Added Acetate 40 mM, 54 hours): 1.84%
- 48 Hour ETOH (w/v %) ([1]; Added Acetate 60 mM, 48 hours): 13.88 w/v %
- 48 Hour Glycerol (w/v %) ([1]; Added Acetate 60 mM, 48 hours): 1.332 w/v %
- % Boost over no added acetate ([1]; Added Acetate 60 mM, 48 hours): 2.71%
- 54 Hour ETOH (w/v %) ([1]; Added Acetate 60 mM, 54 hours): 13.83 w/v %
- 54 Hour Glycerol (w/v %) ([1]; Added Acetate 60 mM, 54 hours): 1.323 w/v %
- % Boost over no added acetate ([1]; Added Acetate 60 mM, 54 hours): 1.84%
- 48 Hour ETOH (w/v %) ([1]; Added Acetate 120 mM, 48 hours): 12.92 w/v %
- 48 Hour Glycerol (w/v %) ([1]; Added Acetate 120 mM, 48 hours): 1.337 w/v %
- % Boost over no added acetate ([1]; Added Acetate 120 mM, 48 hours): −4.41%
- 54 Hour ETOH (w/v %) ([1]; Added Acetate 120 mM, 54 hours): 12.94 w/v %
- 54 Hour Glycerol (w/v %) ([1]; Added Acetate 120 mM, 54 hours): 1.34 w/v %
- % Boost over no added acetate ([1]; Added Acetate 120 mM, 54 hours): −4.68%
- % change over no added acetate ([1]; Added Acetate 5 mM, 48 hours): −4.68%
- % change over no added acetate ([1]; Added Acetate 5 mM, 54 hours): −3.86%
- % change over no added acetate ([1]; Added Acetate 10 mM, 48 hours): −9.53%
- % change over no added acetate ([1]; Added Acetate 10 mM, 54 hours): −7.18%
- % change over no added acetate ([1]; Added Acetate 20 mM, 48 hours): −14.85%
- % change over no added acetate ([1]; Added Acetate 20 mM, 54 hours): −14.21%
- % change over no added acetate ([1]; Added Acetate 40 mM, 48 hours): −20.48%
- % change over no added acetate ([1]; Added Acetate 40 mM, 54 hours): −19.21%
- % change over no added acetate ([1]; Added Acetate 60 mM, 48 hours): −22.40%
- % change over no added acetate ([1]; Added Acetate 60 mM, 54 hours): −21.70%
- % change over no added acetate ([1]; Added Acetate 120 mM, 48 hours): −22.09%
- % change over no added acetate ([1]; Added Acetate 120 mM, 54 hours): −20.68%

B1: WT: wild type Thermoascus aurantiacus M35 metallo protease, mature peptide amino acids 1 to 177 of SEQ ID NO: 3, no substitution (protein, listed as Thermoascus aurantiacus)
chain: MRLVASLTALVALSVPVFPAAVNVKRASSYLEITLSQVSNTLIKAVVQNTGSDELSFVHLNFFKDPAPVKKVSVYRDGSEVQFEGILSRYKSTGLSRDAFTYLAPGESVEDVFDIASTYDLTSGGPVTIRTEGVVPYATANSTDIAGYISYSSNVLTIDVDGAAAATVSKAITPLDR
- Relative activity 65° C./60° C. ([2]; Table 2): 31%
- Relative activity 70° C./65° C. ([2]; Table 3): 59%
- Relative activity 75° C./65° C. ([2]; Table 3): 17%
- Bovine serum albumin equivalent peptide released [3, 5]: 94 µg/mL
- Bovine serum albumin equivalent peptide released [3, 6]: 103 µg/mL
- Bovine serum albumin equivalent peptide released [3, 7]: 107 µg/mL
- Bovine serum albumin equivalent peptide released [3, 8]: 93 µg/mL
- Bovine serum albumin equivalent peptide released [3, 9]: 58 µg/mL
- Bovine serum albumin equivalent peptide released [3, 10]: 38 µg/mL

B2: JTP050: protease variant of SEQ ID NO: 3: D79L/S87P/A112P/D142L (protein, listed as Thermoascus aurantiacus)
chain: MRLVASLTALVALSVPVFPAAVNVKRASSYLEITLSQVSNTLIKAVVQNTGSDELSFVHLNFFKDPAPVKKVSVYRDGSEVQFEGILSRYKSTGLSRDAFTYLAPGESVEDVFDIASTYDLTSGGPVTIRTEGVVPYATANSTDIAGYISYSSNVLTIDVDGAAAATVSKAITPLDRRTRISSCSGSRQSALTTALRNAASLANAAADAAQSGSASKFSEYFKTTSSSTRQTVAARLRAVAREASSSSSGATTYYCLDPYGYCSPNVLAYTLPSYNIIANCDIFYTYLPPLTSTCHAQDQATTALHEFTHAPGVYSPGTLDLAYGYQAAMGLSSSQAVMNADTYALYANAIYLGC
- Relative activity 75° C./65° C. ([2]; Table 3): 88%
- Relative activity 75° C./70° C. ([2]; Table 5, upper part): 55%
- Relative activity 80° C./70° C. ([2]; Table 5, upper part): 23%
- Relative activity 85° C./70° C. ([2]; Table 5, upper part): 9%
- Bovine serum albumin equivalent peptide released [3, 5]: 86 µg/mL
- Bovine serum albumin equivalent peptide released [3, 6]: 101 µg/mL
- Bovine serum albumin equivalent peptide released [3, 7]: 107 µg/mL
- Bovine serum albumin equivalent peptide released [3, 8]: 107 µg/mL
- Bovine serum albumin equivalent peptide released [3, 9]: 104 µg/mL
- Bovine serum albumin equivalent peptide released [3, 10]: 63 µg/mL
- Bovine serum albumin equivalent peptide released ([3]; Sample incubated 60 min at 95° C.): 36 µg/mL

B3: JTP095: protease variant of SEQ ID NO: 3: N26R/T46R/D79L/S87P/A112P/D142L (protein, listed as Thermoascus aurantiacus)
chain: B2 chain with N204R, T224R
- Remaining activity 84° C. [4]: 62%
